In ChEMBL document CHEMBL1149449 (Bioorg Med Chem Lett, 2006) one finds IC50, IC95 and Ratio CIC95/IC50 data, which are given here for ten molecules.

Molecules are shown by their SMILES.

Test [1] addresses Human immunodeficiency virus type 1 protease (Human immunodeficiency virus 1, UniProt Q72874). As to the kind of experiment: Inhibitory activity against isolated wild-type HIV1 protease.
Test [2] concerns Human immunodeficiency virus 1. The experiment in a line: Antiviral activity in cells infected with wild-type HIV1. It is filed as functional. The conditions noted are these: read-out: CIC95.
Test [3] has as its system Human immunodeficiency virus 1. As to the kind of experiment: Antiviral activity in cells infected with wild-type HIV1 4X mutant in presence of NHS. It is filed as functional. Conditions: Human immunodeficiency virus 1, 4X; read-out: CIC95.
Test [4] concerns the target Human immunodeficiency virus type 1 protease (Human immunodeficiency virus 1) (UniProt Q72874). As to the kind of experiment: Ratio of inhibitory effect against HIV1 protease in cellular over isolated enzyme assay. The format is functional.
Test [5] concerns Human immunodeficiency virus 1. As to the kind of experiment: Antiviral activity in cells infected with wild-type HIV1 1002-60C mutant. The format is functional. The conditions noted are these: Human immunodeficiency virus 1, 1002-60C; read-out: CIC95.
Test [6] deals with Human immunodeficiency virus 1. The experiment in a line: Antiviral activity in cells infected with wild-type HIV1 H93B in presence of FBS. It is filed as functional. Conditions: Human immunodeficiency virus 1, H93B; read-out: CIC95.
Test [7] concerns Human immunodeficiency virus 1. As to the kind of experiment: Antiviral activity in cells infected with wild-type HIV1 1026-60C mutant. The format is functional. The conditions noted are these: Human immunodeficiency virus 1, 1026-60C; read-out: CIC95.
For test [8], the system named is Human immunodeficiency virus 1. The experiment in a line: Antiviral activity in cells infected with wild-type HIV1 1002-60C mutant in presence of NHS. The format is functional. The conditions noted are these: Human immunodeficiency virus 1, 1002-60C; read-out: CIC95.
Test [9] concerns Human immunodeficiency virus 1. As to the kind of experiment: Antiviral activity in cells infected with wild-type HIV1 1026-60C mutant in presence of NHS. The conditions noted are these: Human immunodeficiency virus 1, 1026-60C; read-out: CIC95. It is filed as functional.
For test [10], the system named is Human immunodeficiency virus 1. The experiment in a line: Antiviral activity in cells infected with wild-type HIV1 H93B in presence of NHS. It is filed as functional. The conditions noted are these: Human immunodeficiency virus 1, H93B; read-out: CIC95.
The test system of test [11] is Human immunodeficiency virus 1. The experiment in a line: Antiviral activity in cells infected with wild-type HIV1 NL4-3 in presence of FBS. It is filed as functional. Conditions: Human immunodeficiency virus 1, NL4-3; read-out: CIC95.
Test [12] relates to Human immunodeficiency virus 1. As to the kind of experiment: Antiviral activity in cells infected with wild-type HIV1 4X mutant. It is filed as functional. Conditions: Human immunodeficiency virus 1, 4X; read-out: CIC95.
Test [13] relates to Human immunodeficiency virus 1. As to the kind of experiment: Antiviral activity in cells infected with wild-type HIV1 NL4-3 in presence of NHS. The format is functional. The conditions noted are these: Human immunodeficiency virus 1, NL4-3; read-out: CIC95.

Take `CC(C)(C)CC(=O)N[C@@H](Cc1ccccc1)[C@@H](O)C[C@]1(Cc2ccccc2)N=CC(C2C[C@H](CC(N)=O)c3ccccc32)=C1O` (some centres undefined): the IC50 (as a rule, the point on the concentration scale where inhibition reaches its midpoint) in test [1] was > 250 nM. In addition, the IC95 in test [2] was 12500 nM.

As for `O=C1N[C@@H]2c3ccccc3C(C3=C(O)[C@](Cc4ccccc4)(C[C@H](O)[C@H](Cc4ccccc4)NC(=O)O[C@H]4CCOC4)N=C3)C2O1` (some centres undefined), the IC95 in [3] was 312 nM; in test [5], 1250 nM; in test [6], 625 nM; in test [7], 312 nM; in test [8] it was 1250 nM; in test [9], 312 nM. Also, the IC95 worked out at 400 nM in test [2]; 625 nM in [10]; 625 nM in test [11]; 156 nM in test [12]; 625 nM in [13]. In addition, the Ratio CIC95/IC50 in test [4] worked out at 909. Besides, the IC50 in [1] worked out at 0.44 nM.

On to `O=C(N[C@@H](Cc1ccccc1)[C@@H](O)C[C@]1(Cc2ccccc2)N=CC([C@@H]2CNC(=O)c3ccccc32)=C1O)O[C@H]1CCOC1`, for which the Ratio CIC95/IC50 in test [4] was 137. The molecule further came in with an IC50 in test [1] of 5.7 nM. The IC95 in test [2] was found to be 781 nM.

For the molecule `NC(=O)O[C@@H]1Cc2ccccc2[C@@H]1C1=C(O)[C@](Cc2ccccc2)(C[C@H](O)[C@H](Cc2ccccc2)NC(=O)O[C@H]2CCOC2)N=C1`, the Ratio CIC95/IC50 in test [4] was determined as 125. Besides, the IC50 in test [1] was 2 nM. Besides, the IC95 in test [2] came out at 250 nM.

As for `O=C(N[C@@H](Cc1ccccc1)[C@@H](O)C[C@]1(Cc2ccccc2)N=CC([C@H]2c3ccccc3C[C@H]2O)=C1O)O[C@H]1CCOC1`, the IC95 was 1250 nM in test [3]; 1250 nM in test [5]; 156 nM in test [6]; 156 nM in test [7]; 1250 nM in test [8]; 312 nM in test [9]. The IC95 in test [2] worked out at 100 nM; in [10], 156 nM; in [11], 78 nM; in [12], 625 nM; in [13], 156 nM. Also, the Ratio CIC95/IC50 in [4] came to 50. Further, half-maximal inhibition in test [1] (IC50) required 2 nM.

Turning to `CC(C)(C)CC(=O)N[C@@H](Cc1ccccc1)[C@@H](O)C[C@]1(Cc2ccccc2)N=CC(C2c3ccccc3[C@H]3NC(=O)OC23)=C1O` (some centres undefined), the Ratio CIC95/IC50 in test [4] amounted to 32.5. In test [1], this molecule displayed a 50% inhibitory concentration (IC50) of 96 nM. Besides, in test [2], the IC95 is 3120 nM.

Consider `NC(=O)C[C@H]1CC(C2=C(O)[C@](Cc3ccccc3)(C[C@H](O)[C@H](Cc3ccccc3)NC(=O)O[C@H]3CCOC3)N=C2)c2ccccc21` (some centres undefined), for which the IC95 in test [3] was 1250 nM; in test [5] it was 1250 nM; in [6] it was 1250 nM; in [7], 312 nM; in [8], 2500 nM; in test [9], 625 nM. Further, the IC95 in [2] was determined as 781 nM; in test [10], 1250 nM; in test [11] it was 312 nM; in test [12] it was 625 nM; in [13] it was 625 nM.

On to `CC(C)(C)NC(=O)[C@@H]1CN(Cc2cccnc2)CCN1C[C@@H](O)C[C@@H](Cc1ccccc1)C(=O)N[C@H]1c2ccccc2C[C@H]1O`, for which the IC95 in test [3] stood at 100 nM; in test [5], 400 nM; in [6], 50 nM; in [7], 400 nM; in test [8], 400 nM; in test [9], 400 nM. In addition, the IC95 in test [2] amounted to 25 nM; in test [10], 25 nM; in test [11], 50 nM; in [12] it was 100 nM; in test [13], 50 nM.

Turning to `CC(C)(C)OC(=O)N[C@@H](Cc1ccccc1)[C@@H](O)C[C@]1(Cc2ccccc2)N=CC(C2C[C@H](CC(N)=O)c3ccccc32)=C1O` (some centres undefined), in test [1], the IC50 was 20.5 nM. For the same molecule, in test [2], the IC95 was > 400 nM.

As to `CC(C)(C)OC(=O)N[C@@H](Cc1ccccc1)[C@@H](O)C[C@]1(Cc2ccccc2)N=CC(C2c3ccccc3[C@H]3NC(=O)OC23)=C1O` (some centres undefined), the IC95 in test [3] amounted to 5000 nM; in test [5], 2500 nM; in test [6] it was 156 nM; in [7], 625 nM; in test [8], 10000 nM; in test [9], 1250 nM. Moreover, the IC95 in [2] was 200 nM; in test [10], 312 nM; in test [11], 156 nM; in test [12] it was 2500 nM; in test [13], 625 nM. Besides, the Ratio CIC95/IC50 in test [4] is 80. This molecule showed an IC50 in [1] of 2.5 nM.
